In patent publication US9358239B2, “NiSOD-like compound and its derivatives for suppressing abnormal protein aggregation, recovering cell viability, increasing mature neuron number and neurite outgrowth length and protecting dopaminergic cells by reducing oxidative stress or reactive oxygen species in brain tissues” (National Taiwan Normal University, priority 2012, dated 2016):
pEC50: −log10 of the molar value. Values belong to the compound of their own block, whether it stands above or below them.

Legend:
ATXN3/Q75 aggregation = assay: ATXN3/Q75-GFP aggregation, high-content analysis in Flp-In 293 cells; type: cell-based, human; conditions: at 100 nM
Description: For therapies toward the polyQ diseases, we aimed to screen compounds potentially inhibiting polyQ aggregation. As removal of the N-terminal ATXN3 was required for ATXN3 aggregation, GFP-tagged ATXN3/Q14-75 C-terminal fragment was cloned to establish Flp-In 293 cells with inducible ATXN3/Q14-75-GFP expression. Refer to FIG. 2. The GFP antibody detected 40˜57 kDa ATXN3/Q14-75-GFP proteins in doxycycline (+Dox) induced ATXN3 cells. Refer to FIGS. 3A and 3B. While the expressed ATXN3/Q14 was primarily diffused, the expressed ATXN3/Q75-GFP formed aggregates. For high content aggregation analysis, these ATXN3/Q75 cells were seeded onto 96-well plate, treated with tested compounds WCt003, WCt006 and WCt021 for 8 hours, and doxycycline was added to induce ATXN3/Q75-GFP expression for 6 days. Oxaliplatin (5 μM, Sigma) was added for aggregate accumulation through inhibition of DNA synthesis. Then cells were stained with Hochest 33342 (0.1 μg/ml, Sigma) and aggregation percentage was assessed by high-content analysis (HCA) system, with excitation/emission wavelengths at 482/536 (GFP).
Refer to FIG. 4. Cells expressing ATXN3/Q75 were examined with tested compounds WCt003, WCt006 and WCt021. […] WCt003 and WCt006 reduced the ATXN3/Q75 aggregation to 80% to 84% at 10 nM and 100 nM, and WCt021 reduced the ATXN3/Q75 aggregation to 80% to 84% at 1 nM to 100 nM. […]

[1] = DPPH free radical scavenging assay; type: biochemical; conditions: absorbance at 517 nm
Description: For DPPH (1,1-diphenyl-2-picryl hydrazyl) scavenging activity, the odd electron in the stable DPPH free radical gives a strong absorption maximum at 517 nm and is purple in color. The DPPH assay measured scavenging ability of the antioxidants towards the stable radical. The free radical DPPH was reduced when it reacted with antioxidants and results in decrease in absorbance at 517 nm. The degree of discoloration indicated the scavenging potential of the antioxidant compounds. Refer to FIG. 7.

[2] = SOD Assay Kit-WST, SOD(-like) activity; type: biochemical; conditions: WST-1 reduction
Description: For SOD activity, SOD enzyme from human erythrocytes (Sigma, catalog number 59636) and HEK-293 cell lysate (5×10^6/ml) were used as comparison. The SOD Assay Kit-WST from Dojindo was used to determine SOD activity. The assay utilizes WST-1 [2-(4-iodophenyl)-3-(4-nitrophenyl)-5-(2,4)-disulfophenyl-2H-tetrazolium, monosodium salt] that produces a water-soluble formazan dye upon reduction with the superoxide anion. The rate of the reduction of WST-1 with O2^− was linearly related to the xanthine oxidase (XO) activity, and this reduction was inhibited by SOD. Therefore, the IC50 (50% inhibition activity of SOD or SOD-like materials) can be determined by the colorimetric method. Refer to FIG. 6A. […] Refer to FIG. 6B. […] Refer to FIG. 6C.

Compound: O=C(CCCCCCC(=O)Nc1ccccc1)NO [SAHA, suberoylanilide hydroxamic acid]
- ATXN3/Q75 aggregation as compared to untreated cells (ATXN3/Q75 aggregation): 85%

- pEC50 [1]: 4.57
Compound: O=c1c(O)c(-c2ccc(O)cc2)oc2cc(O)cc(O)c12 [kaempferol, reference compound]

Compound: SOD enzyme from human erythrocytes: SOD enzyme from human erythrocytes (Sigma), used as comparison
- IC50 (SOD activity) [2]: 0.38 U/ml
